Measured values published in ChEMBL document CHEMBL1201862, “PubChem BioAssay data set” (2004).
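How tested: cells in 96-well plates exposed to compound for 48 hours at five concentrations. Abbreviation: GI50, concentration required for 50% inhibition of growth.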 Calls of active or inactive are those of the source. Rule as the data show it: active = GI50 up to about 1.1 µM and inactive = higher.

What was measured:
Test in all cases: growth of human tumour cells (NCI), 48 h
MOLT-4 = tested on: MOLT-4
SNB-19 = tested on: SNB-19
UACC-257 = tested on: UACC-257
NCI-H23 = tested on: NCI-H23
KM12 = tested on: KM12
NCI-H226 = tested on: NCI-H226
CAKI-1 = tested on: CAKI-1
COLO 205 = tested on: COLO 205
ACHN = tested on: ACHN
UACC-62 = tested on: UACC-62
RPMI-8226 = tested on: RPMI-8226
K562 = tested on: K562
SK-MEL-2 = tested on: SK-MEL-2
HT-29 = tested on: HT-29
IGROV-1 = tested on: IGROV-1
HL-60 = tested on: HL-60
DU-145 = tested on: DU-145
MDA-N = tested on: MDA-N
NCI/ADR-RES = tested on: NCI/ADR-RES
MDA-MB-435 = tested on: MDA-MB-435

| SMILES | GI50 (MOLT-4) | GI50 (SNB-19) | GI50 (UACC-257) | GI50 (NCI-H23) | GI50 (KM12) | GI50 (NCI-H226) | GI50 (CAKI-1) | GI50 (COLO 205) | GI50 (ACHN) | GI50 (UACC-62) | GI50 (RPMI-8226) | GI50 (K562) | GI50 (SK-MEL-2) | GI50 (HT-29) | GI50 (IGROV-1) | GI50 (HL-60) | GI50 (DU-145) | GI50 (MDA-N) | GI50 (NCI/ADR-RES) | GI50 (MDA-MB-435) |
| --- | --- | --- | --- | --- | --- | --- | --- | --- | --- | --- | --- | --- | --- | --- | --- | --- | --- | --- | --- | --- |
| O=c1cccccc1NCCCCCCCNc1cccccc1=O | 17 µM (inactive) | 33.7 µM (inactive) | 16.4 µM (inactive) | 19.7 µM (inactive) | 56.4 µM (inactive) | 34.5 µM (inactive) | 45.6 µM (inactive) | 40.1 µM (inactive) | 26.7 µM (inactive) | 19.4 µM (inactive) | 13.8 µM (inactive) | 17.8 µM (inactive) | 49 µM (inactive) | 55.5 µM (inactive) | 54.2 µM (inactive) | 11.1 µM (inactive) |  |  |  |  |
| CC[C@](C)(O)C(=O)O[C@H]1C(=O)O[C@@H]2C[C@H]3C(C)=CC(=O)[C@@H](O)[C@]3(C)[C@H]3[C@@]4(O)OC[C@]32[C@@H]1[C@@H](C)[C@H]4O [GLAUCARUBINONE] | 0.05 µM (active) | 0.0933 µM (active) | 0.0675 µM (active) | 0.0796 µM (active) | 0.0604 µM (active) | 0.113 µM (active) |  | 0.815 µM (active) | 0.292 µM (active) | 0.051 µM (active) | 0.0548 µM (active) | 0.05 µM (active) | 0.0625 µM (active) |  | 0.05 µM (active) | 0.05 µM (active) | 0.824 µM (active) | 0.425 µM (active) | 2.27 µM (inactive) | 1.4 µM (inactive) |
| CCC1OC2(C)CC(C#N)(C#N)C1(C#N)C(=N)O2 (configuration not stated) | > 100 µM (inactive) | > 100 µM (inactive) | > 100 µM (inactive) | > 100 µM (inactive) | > 100 µM (inactive) |  | > 100 µM (inactive) | > 100 µM (inactive) | > 100 µM (inactive) | > 100 µM (inactive) |  | > 100 µM (inactive) | > 100 µM (inactive) |  | > 100 µM (inactive) | > 100 µM (inactive) | > 100 µM (inactive) | > 100 µM (inactive) |  | > 100 µM (inactive) |
| COc1cc2c(cc1OC)C(Cc1ccccc1CCCl)=NCC2 | 38.6 µM (inactive) | 55.3 µM (inactive) | 50.8 µM (inactive) | 22 µM (inactive) | 36.8 µM (inactive) | 31.3 µM (inactive) | 76.6 µM (inactive) | 26.6 µM (inactive) | 73.3 µM (inactive) | 34.2 µM (inactive) | 24.2 µM (inactive) | 30.3 µM (inactive) | > 100 µM (inactive) | 6.85 µM (inactive) | 27 µM (inactive) | 19.8 µM (inactive) | > 100 µM (inactive) |  | 25.8 µM (inactive) | 40.1 µM (inactive) |
| Cc1oc2nc(N(C)C)nc(Cl)c2c1C | > 100 µM (inactive) | > 100 µM (inactive) | > 100 µM (inactive) | > 100 µM (inactive) | > 100 µM (inactive) | 84.1 µM (inactive) | 49.4 µM (inactive) | > 100 µM (inactive) | > 100 µM (inactive) | > 100 µM (inactive) | > 100 µM (inactive) | > 100 µM (inactive) | > 100 µM (inactive) | > 100 µM (inactive) | 49.8 µM (inactive) | > 100 µM (inactive) | > 100 µM (inactive) |  | > 100 µM (inactive) | > 100 µM (inactive) |
| COC(=O)c1ccc(C)cc1/C=C1\Cc2ccc(C)cc2C1=O | 13.2 µM (inactive) | 17.2 µM (inactive) | 22.6 µM (inactive) | 23.9 µM (inactive) | 11.6 µM (inactive) | 10.1 µM (inactive) | 26.3 µM (inactive) | 8.63 µM (inactive) | 30.8 µM (inactive) | 11.4 µM (inactive) | 11.8 µM (inactive) | 6.58 µM (inactive) |  | 4.73 µM (inactive) | 10.4 µM (inactive) | 4.78 µM (inactive) | 16.7 µM (inactive) |  | 29.4 µM (inactive) | 4.28 µM (inactive) |
| Cc1cc(C)c(N[S+]([O-])c2cccc(C(F)(F)F)c2)c(C)c1 (configuration not stated) | > 100 µM (inactive) | > 100 µM (inactive) | > 100 µM (inactive) | > 100 µM (inactive) | > 100 µM (inactive) | > 100 µM (inactive) |  | > 100 µM (inactive) | > 100 µM (inactive) |  | > 100 µM (inactive) | > 100 µM (inactive) |  | > 100 µM (inactive) |  | > 100 µM (inactive) | > 100 µM (inactive) | > 100 µM (inactive) | > 100 µM (inactive) | > 100 µM (inactive) |
| O=C(CN1c2ccccc2Sc2ccccc21)n1cnc2ccccc21 | 51.4 µM (inactive) | > 100 µM (inactive) | > 100 µM (inactive) | 77.3 µM (inactive) | 59.8 µM (inactive) | 45 µM (inactive) |  | 92.3 µM (inactive) | > 100 µM (inactive) | > 100 µM (inactive) | 90.4 µM (inactive) | 99.5 µM (inactive) | > 100 µM (inactive) | 73.6 µM (inactive) | > 100 µM (inactive) | 89.3 µM (inactive) | > 100 µM (inactive) | > 100 µM (inactive) | 97.5 µM (inactive) | > 100 µM (inactive) |
| CC(C)(C)OC(=O)NCCC(N)=S | > 100 µM (inactive) | > 100 µM (inactive) | > 100 µM (inactive) | > 100 µM (inactive) | > 100 µM (inactive) | > 100 µM (inactive) |  | > 100 µM (inactive) | > 100 µM (inactive) | > 100 µM (inactive) | > 100 µM (inactive) | > 100 µM (inactive) |  | > 100 µM (inactive) | > 100 µM (inactive) | > 100 µM (inactive) | > 100 µM (inactive) | > 100 µM (inactive) | > 100 µM (inactive) | > 100 µM (inactive) |
| Cn1c(=O)c2nc(-c3ccc(Cl)cc3)oc2n(C)c1=O | > 100 µM (inactive) | > 100 µM (inactive) | > 100 µM (inactive) | > 100 µM (inactive) | > 100 µM (inactive) | > 100 µM (inactive) | > 100 µM (inactive) |  | > 100 µM (inactive) | > 100 µM (inactive) | > 100 µM (inactive) | > 100 µM (inactive) | > 100 µM (inactive) | > 100 µM (inactive) |  | > 100 µM (inactive) |  |  |  |  |
| CCN(CC)CCC(=O)NC1c2ccc(Cl)cc2Oc2c(C)cccc21 (configuration not stated) | 18.6 µM (inactive) | 14 µM (inactive) | 17.1 µM (inactive) | 17.4 µM (inactive) | 15.6 µM (inactive) |  |  | 18.6 µM (inactive) |  | 16.9 µM (inactive) | 24.9 µM (inactive) | 18.5 µM (inactive) |  | 12.9 µM (inactive) | 13 µM (inactive) | 13.9 µM (inactive) | 16 µM (inactive) | 16.6 µM (inactive) | 16.8 µM (inactive) | 15.1 µM (inactive) |
| COc1ccc(O)c(/C=N/CCC/N=C/c2cc(OC)ccc2O)c1 | 16.6 µM (inactive) | 21.6 µM (inactive) | 23.7 µM (inactive) | 43.5 µM (inactive) | 13.8 µM (inactive) | 27.4 µM (inactive) |  |  | 24.7 µM (inactive) | 33.1 µM (inactive) | 11.7 µM (inactive) | 10.9 µM (inactive) | 31.6 µM (inactive) | 37.5 µM (inactive) | 34.4 µM (inactive) | 1.21 µM (inactive) | 22 µM (inactive) | 31.3 µM (inactive) |  | 22.6 µM (inactive) |
| CC(C)(C)OC(=O)N(CCCCNCc1ccc2ccccc2c1)CCCNCc1ccc2ccccc2c1 | 0.708 µM (active) | 1.76 µM (inactive) | 1.91 µM (inactive) | 1.85 µM (inactive) | 1.3 µM (inactive) | 1.64 µM (inactive) | 1.17 µM (inactive) | 1.17 µM (inactive) | 1.92 µM (inactive) | 1.66 µM (inactive) | 1.08 µM (active) | 0.273 µM (active) | 2.06 µM (inactive) | 0.893 µM (active) | 1.64 µM (inactive) | 0.204 µM (active) | 1.69 µM (inactive) |  | 1.57 µM (inactive) | 1.84 µM (inactive) |
| COc1ccc(/C=C(\C#N)c2nc(N)nc(N3N=C(C)CC3(C)C)n2)c(O)c1 | 13.1 µM (inactive) | 35.1 µM (inactive) | 24 µM (inactive) | 18.8 µM (inactive) | 15.6 µM (inactive) | 16.7 µM (inactive) | 17.2 µM (inactive) | 17 µM (inactive) | 17.1 µM (inactive) | 17.4 µM (inactive) | 41.3 µM (inactive) | 21.3 µM (inactive) | 20.7 µM (inactive) | 19.2 µM (inactive) | 24 µM (inactive) | 16.5 µM (inactive) | 16.7 µM (inactive) |  | 31 µM (inactive) | 16.9 µM (inactive) |
| C=C(COC(=O)C(C)C)[C@H]1Oc2ccc(C(C)=O)cc2[C@@H]1OC(=O)C(C)C | > 100 µM (inactive) | > 100 µM (inactive) | > 100 µM (inactive) | > 100 µM (inactive) | > 100 µM (inactive) | > 100 µM (inactive) | > 100 µM (inactive) | > 100 µM (inactive) | > 100 µM (inactive) | > 100 µM (inactive) | 76.4 µM (inactive) | > 100 µM (inactive) | > 100 µM (inactive) | > 100 µM (inactive) | > 100 µM (inactive) | 53.6 µM (inactive) | > 100 µM (inactive) | > 100 µM (inactive) |  | > 100 µM (inactive) |
| C#CC[C@]12CC(=O)CC[C@H]1CC(=O)C2 | > 100 µM (inactive) | > 100 µM (inactive) | > 100 µM (inactive) |  | > 100 µM (inactive) | > 100 µM (inactive) | > 100 µM (inactive) | > 100 µM (inactive) | > 100 µM (inactive) | > 100 µM (inactive) | > 100 µM (inactive) | > 100 µM (inactive) | > 100 µM (inactive) |  | > 100 µM (inactive) | > 100 µM (inactive) |  |  |  |  |
